Patent publication US20230322797A1, “SOLID FORMS, PHARMACEUTICAL COMPOSITIONS AND PREPARATION OF HETEROAROMATIC MACROCYCLIC ETHER COMPOUNDS” (Nuvalent, Inc., priority 2022, published 2023)
Structures can show the parent of a compound that is named as a salt.

Tests used:
Type in all cases: physicochemical
[1] = Solubility of Compound 1 salts in organic solvents (solvent volumes)
Experimental: Preparation of Additional Salts: Additional salts shown in the Table below were prepared using procedures similar to those described above and the solubility of the resulting salts of Compound 1 was evaluated.

[2] = Desolvation experiments on solvated forms (heating, then XRPD)
Experimental: Desolvation experiments were carried out on the solvated forms identified during the polymorph screen to establish the relationships between the forms. Samples were heated to a temperature at which the solids fully desolvated (based on TG/DSC characterisation data) and where exothermic events were observed after desolvation a separate experiment was carried out to assess for additional solid forms.

[3] = Stability study of Compound 1 drug substance; settings: 1 month / three months (Example 10)
Experimental: A stability study is conducted for Compound 1. Samples were stored at: 30° C.±2° C./65%±5% Relative Humidity (RH), or 40° C.±2° C./75%±5% RH. At regular intervals (e.g., initial, 1, 3, 6, 9, 12, 18, 24, and 36 months), tests are performed for description, assay, related substances, water content, polymorphic form, and chiral purity.
A stability study was conducted for Compound 1 crystalline free base Form 2. Samples were stored at: (1) 30° C.±2° C./65%±5% Relative Humidity (RH), with data collected at 0, 1, 3, 6, 9, and 12 months; and (2) 40° C.±2° C./75%±5% RH, with data collected at 0, 1, 3, and 6 months. At the indicated time points, tests were performed for description, assay, related substances, water content, polymorphic form, and chiral purity.

[4] = Solubility of salts of Compound 2 and free base in distilled water (gravimetric)
Experimental: Solubility of the scaled-up salts of Compound 2 and free base Compound 2 was assessed in distilled water at RT. Approximately 30 mg of solid was weighed directly into 2 mL vials, and a 6 mm stir bar was added to each vial. Water was then incrementally added to the vials (starting with 1 vol.) and the resulting slurries were left to stir for 10-15 min prior to the next addition. As all solids remained in slurries upon the addition of 1 mL of water, the gravimetric method was adopted, and the vials were stirred at RT for 3 days before centrifuging. Supernatant solutions were recovered and evaporated to dryness at 50° C. in atmosphere on a hot plate, then placed at 50° C. under vacuum (˜−29 inHg) for 3 h before final weighing.

[5] = target temperature 150 °C, after desolvation
[6] = target temperature 200 °C, after exothermic event

CCn1nc(Cl)c2c1-c1cnc(N)c(c1)O[C@H](C)c1cc(F)ccc1-c1nn(C)cc1C2 [Salicylic acid salt]
Solubility, Volume (at 10-20° C.) ([1]; 2-MeTHF): 18-20 V
Solubility, Volume (at 10-20° C.) ([1]; Acetone): 26-28 V
Solubility, Volume (at 10-20° C.) ([1]; CPME): 100-140 V
Solubility, Volume (at 10-20° C.) ([1]; EtOAc): 26-30 V
Solubility, Volume (at 10-20° C.) ([1]; IPA): 300-400 V
Solubility, Volume (at 10-20° C.) ([1]; IPAc): 56-60 V
Solubility, Volume (at 10-20° C.) ([1]; MeCN): 90-100 V
Solubility, Volume (at 10-20° C.) ([1]; THF): 4-6 V
Solubility, Volume (at 10-20° C.) ([1]; Toluene): 320-360 V
Solubility, Volume (at 10-20° C.) ([1]; t-AmOH): >400 V

CCn1nc(Cl)c2c1-c1cnc(N)c(c1)O[C@H](C)c1cc(F)ccc1-c1nn(C)cc1C2 [Form 8]
Solid Form post-heating [2, 5]: Form 2
Solid Form post-heating [2, 6]: Form 2

CCn1nc(Cl)c2c1-c1cnc(N)c(c1)O[C@H](C)c1cc(F)ccc1-c1nn(C)cc1C2 [Form 7]
Solid Form post-heating ([2]; target temperature 134 °C, after desolvation): Form 2

CCn1nc(Cl)c2c1-c1cnc(N)c(c1)O[C@H](C)c1cc(F)ccc1-c1nn(C)cc1C2 [Form 11]
Solid Form post-heating ([2]; target temperature 130 °C, after desolvation): Form 2
Solid Form post-heating [2, 6]: Form 2

CCn1nc(Cl)c2c1-c1cnc(N)c(c1)O[C@H](C)c1cc(F)ccc1-c1nn(C)cc1C2 [Form 12]
Solid Form post-heating [2, 5]: Form 2

CCn1nc(Cl)c2c1-c1cnc(N)c(c1)O[C@H](C)c1cc(F)ccc1-c1nn(C)cc1C2 [Form 10]
Solid Form post-heating [2, 5]: Form 2

CCn1nc(Cl)c2c1-c1cnc(N)c(c1)O[C@H](C)c1cc(F)ccc1-c1nn(C)cc1C2 [Form 13]
Solid Form post-heating [2, 5]: Form 2

CCn1nc(Cl)c2c1-c1cnc(N)c(c1)O[C@H](C)c1cc(F)ccc1-c1nn(C)cc1C2 [Compound 1]
Chemical and physical stability (description, assay, related substances, water content, polymorphic form, chiral purity) ([3]; 30° C.±2° C./65%±5% RH): No meaningful changes
Chemical and physical stability (description, assay, related substances, water content, polymorphic form, chiral purity) ([3]; 40° C.±2° C./75%±5% RH): No meaningful changes

CCn1nc(Cl)c2c1-c1cnc(N)c(c1)O[C@H](C)c1cc(F)ccc1-c1nn(C)cc1C2 [Form 15]
Solid Form post-heating [2, 5]: Amorphous
Solid Form post-heating [2, 6]: Form 2

CCn1cc(Cc2cn(C)nc2-c2ccc(F)cc2[C@@H](C)Oc2cc(Br)cnc2N)c(Cl)n1 [Free Base]
Solubility (mg solid/mL water) ([4]; distilled water, RT, stirred 3 days, gravimetric): <3 mg solid/mL water
XRPD Pattern Recovered ([4]; solid recovered after slurry in water at RT): Amorphous

CCn1nc(Cl)c2c1-c1cnc(N)c(c1)O[C@H](C)c1cc(F)ccc1-c1nn(C)cc1C2 [Form 4]
Solid Form post-heating ([2]; target temperature 132 °C, after desolvation): Form 2
Solid Form post-heating ([2]; target temperature 170 °C, after exothermic event): Form 2

CCn1nc(Cl)c2c1-c1cnc(N)c(c1)O[C@H](C)c1cc(F)ccc1-c1nn(C)cc1C2 [L-Tartaric Acid Salt]
Solubility, Volume (at 10-20° C.) ([1]; 2-MeTHF): 4-6 V
Solubility, Volume (at 10-20° C.) ([1]; Acetone): 2-4 V
Solubility, Volume (at 10-20° C.) ([1]; CPME): 60-70 V
Solubility, Volume (at 10-20° C.) ([1]; EtOAc): 12-14 V
Solubility, Volume (at 10-20° C.) ([1]; IPA): 18-20 V
Solubility, Volume (at 10-20° C.) ([1]; IPAc): 52-56 V
Solubility, Volume (at 10-20° C.) ([1]; MeCN): 30-32 V
Solubility, Volume (at 10-20° C.) ([1]; THF): 8-10 V
Solubility, Volume (at 10-20° C.) ([1]; Toluene): >400 V
Solubility, Volume (at 10-20° C.) ([1]; t-AmOH): 18-20 V
